The NIST ThermoML archive (doi:10.1021/je700152c)

Legend:
[1] = molar heat capacity at constant pressure; conditions: 101.33 kPa
[2] = molar heat capacity at constant pressure; xn = mol fraction of the nth substance listed; conditions: 101 kPa, Liquid, x1 = 0.37

CCCCn1cc[n+](C)c1.Cc1ccc(S(=O)(=O)[O-])cc1 [1-butyl-3-methylimidazolium tosylate]
[1]
Conditions	molar heat capacity at constant pressure [J/K/mol]
5 K, Crystal 2	2.54
10 K, Crystal 2	11.91
15 K, Crystal 2	24.31
20 K, Crystal 2	37.67
25 K, Crystal 2	51.27
30 K, Crystal 2	64.46
35 K, Crystal 2	76.73
40 K, Crystal 2	87.97
45 K, Crystal 2	98.44
50 K, Crystal 2	108.3
60 K, Crystal 2	125.9
70 K, Crystal 2	141.6
80 K, Crystal 2	156
90 K, Crystal 2	169.3
100 K, Crystal 2	181.9
105 K, Crystal 2	188.1
110 K, Crystal 2	194.1
120 K, Crystal 2	206
130 K, Crystal 2	218
140 K, Crystal 2	230
150 K, Crystal 2	241.9
152.77 K, Crystal 1	238.4
152.77 K, Crystal 2	245.2
160 K, Crystal 1	246.2
170 K, Crystal 1	257
180 K, Crystal 1	267.8
190 K, Crystal 1	278.8
200 K, Crystal 1	289.9
210 K, Crystal 1	301.5
220 K, Crystal 1	313.3
230 K, Crystal 1	335.4
240 K, Crystal 1	348.3
250 K, Crystal 1	359.9
260 K, Crystal 1	371.2
270 K, Crystal 1	382.3
280 K, Crystal 1	393.3
290 K, Crystal 1	404.1
298.15 K, Crystal 1	412.7
300 K, Crystal 1	414.6
310 K, Crystal 1	425
320 K, Crystal 1	435.3
330 K, Crystal 1	445.3
340 K, Crystal 1	455.1
343.89 K, Crystal 1	458.7
343.89 K, Liquid	543.4
350 K, Liquid	548.4
360 K, Liquid	556
370 K, Liquid	563.1
380 K, Liquid	569.8

CCCCn1cc[n+](C)c1.Cc1ccc(S(=O)(=O)[O-])cc1 [1-butyl-3-methylimidazolium tosylate] + O
[2]
Conditions	molar heat capacity at constant pressure [J/K/mol]
78.74 K	66.26
81.34 K	67.77
83.37 K	68.91
85.4 K	70.17
87.43 K	71.43
89.46 K	72.69
91.5 K	73.83
93.53 K	75.09
95.58 K	76.35
97.63 K	77.49
99.68 K	78.62
101.73 K	79.76
103.78 K	81.02
105.84 K	82.16
107.9 K	83.29
109.96 K	84.43
112.02 K	85.57
114.09 K	86.7
116.17 K	87.84
118.24 K	88.97
120.32 K	90.23
122.39 K	91.37
124.47 K	92.51
126.55 K	93.64
128.64 K	94.78
130.73 K	96.04
132.81 K	97.3
134.9 K	98.31
136.98 K	99.57
139.08 K	100.71
141.17 K	101.85
143.27 K	103.11
145.36 K	104.24
147.46 K	105.38
149.56 K	106.64
151.66 K	107.78
153.77 K	108.91
155.87 K	110.17
157.98 K	111.44
160.09 K	112.57
162.2 K	113.71
164.31 K	114.97
166.42 K	116.23
168.54 K	117.37
170.66 K	118.63
172.78 K	119.89
174.9 K	121.03
177.02 K	122.29
179.14 K	123.55
181.27 K	124.94
183.39 K	126.58
185.51 K	128.6
187.64 K	131.63
189.76 K	138.07
191.84 K	148.79
193.9 K	159.02
195.93 K	176.18
198 K	179.59
200.12 K	180.34
202.26 K	181.1
204.39 K	181.73
206.52 K	182.24
208.65 K	182.87
210.79 K	183.5
212.93 K	184.13
215.07 K	184.63
217.23 K	185.39
219.38 K	185.9
221.54 K	186.65
223.7 K	187.28
225.87 K	188.04
